Results reported in the NIST ThermoML archive (doi:10.1021/je900221m).

Test: cn = amount concentration of the nth substance listed, in mol/dm3
Details: 101 kPa, Liquid, Taylor dispersion method

NNC(=O)c1ccncc1 [isonicotinic acid hydrazide] + O
binary diffusion coefficient [m2/s]
Details | c1 = 0 | c1 = 0.005 | c1 = 0.01 | c1 = 0.02 | c1 = 0.05 | c1 = 0.1
298.15 K | 8.26e-10 | 8.25e-10 | 8.23e-10 | 8.21e-10 | 8.14e-10 | 8.09e-10
310.15 K | 1.19e-09 | 1.18e-09 | 1.15e-09 | 1.11e-09 | 1.09e-09 | 1.04e-09
